Results from patent US20080248077A1, “Formulation” (ASTRAZENECA AB, priority 2005, published 2008).
≈ marks a conversion by molar mass, not a printed value. Like-named read-outs stand apart in the source and are kept apart here.

Experiment: water solubility of anastrozole
Assay type: physicochemical

solubility (at 25° C., read-out: water solubility): 530 µg/mL (≈ 1810 µM)
solubility (read-out: aqueous solubility): 530 µg/mL (≈ 1810 µM)
SMILES: CC(C)(C#N)c1cc(Cn2cncn2)cc(C(C)(C)C#N)c1 [anastrozole, Anastrozole]
